Assay results published in patent publication US20240116946A1 (Gilead Sciences, Inc., priority 2022, published 2024).
Read-outs that look alike come from different tables or passages of the source.

How the values were obtained:
[1] = target: recombinant SARS-CoV-2 Main protease (Mpro) (Severe acute respiratory syndrome coronavirus 2 (2019-nCoV) (SARS-CoV-2), UniProt P0DTD1); assay: Cov Mpro Biochemical IC50 Assay
SARS-CoV-2-NLuc = assay: microbe, parasite or virus in culture; type: cell-based, SARS Coronavirus 2
[2] = recombinant SARS-CoV-2 Mpro 7.5 nM, fluorogenic peptide substrate 40 μM, read-out: MPro IC50
[3] = recombinant SARS-CoV-2 Mpro, fluorogenic peptide substrate, read-out: MPro IC50
[4] = Severe acute respiratory syndrome coronavirus, 48 h, read-out: MPro EC50
[5] = Severe acute respiratory syndrome coronavirus, 48 h; read-out: MPro EC50

| SMILES | IC50 [1, 2] | IC50 [1, 3] | EC50 (SARS-CoV-2-NLuc; [4]) | further results |
| --- | --- | --- | --- | --- |
| COc1ccc(C#N)c(-c2cc3[nH]c(=O)n(-c4cncc5ccccc45)c(=O)c3cc2F)c1 (single isomer, unassigned) [Example 438, 2-(6-fluoro-3-(isoquinolin-4-yl)-2,4-dioxo-1,2,3,4-tetrahydroquinazolin-7-yl)-4-methoxybenzonitrile] | < 4.17 nM | – | – | EC50 (SARS-CoV-2-NLuc; read-out: MPro EC50): < 11.4 nM |
| Cc1noc(C)c1-c1cc2[nH]c(=O)n(-c3cncc4ccccc34)c(=O)c2s1 [Example 362] | – | 35.6 nM | 201 nM | – |
| N#CCCn1c(=O)n(-c2cncc3ccccc23)c(=O)c2sc(-c3cc(F)c(F)cc3Cl)cc21 [Example 826] | 8.26 nM | – | 23.9 nM | – |
| O=c1[nH]c2cc(-c3ccccc3Cl)sc2c(=O)n1-c1cncc2cccnc12 (single isomer, unassigned) [Example 463, 6-(2-chlorophenyl)-3-(1,6-naphthyridin-8-yl)thieno[3,2-d]pyrimidine-2,4(1H,3H)-dione] | 202 nM | – | – | EC50 (SARS-CoV-2-NLuc; read-out: MPro EC50): 464 nM |
| COc1cc(-c2cc3c(s2)c(=O)n(-c2cncc4cnn(C)c24)c(=O)n3CC(F)(F)F)c(Cl)cc1F [Example 1066] | 15.3 nM | – | 19.9 nM | – |
| COc1cc(-c2cc3[nH]c(=O)n(-c4cncc5cccc(C)c45)c(=O)c3s2)c(Cl)cc1F [Example 560] | < 2.54 nM | – | 6.1 nM | – |
| Cc1nnn(C)c1-c1cccc(Cl)c1-c1ccc2c(=O)n(-c3cncc4ccccc34)c(=O)[nH]c2c1 [Example 313] | – | 40.8 nM | 145 nM | – |
| COc1ccc(C#N)c(-c2cc3[nH]c(=O)n(-c4cncc5ccccc45)c(=O)c3cc2F)c1 (single isomer, unassigned) [Example 439, 2-(6-fluoro-3-(isoquinolin-4-yl)-2,4-dioxo-1,2,3,4-tetrahydroquinazolin-7-yl)-4-methoxybenzonitrile] | 828 nM | – | – | EC50 (SARS-CoV-2-NLuc; read-out: MPro EC50): 377 nM |
| N#CCCn1c(=O)n(-c2cccnc2)c(=O)c2sc(-c3ccccc3Cl)cc21 [Example 804] | 14 nM | – | – | EC50 (SARS-CoV-2-NLuc; [5]): 45 nM |
| COc1cc(-c2cc3c(s2)c(=O)n(-c2cncc4nn(C)c(C)c24)c(=O)n3CCC#N)c(C#N)cc1F [Example 895] | 8.43 nM | – | 218 nM | – |
| COc1cnc(Cl)c(-c2cc3c(s2)c(=O)n(-c2cncc(C(F)(F)F)c2)c(=O)n3CCC#N)c1 [Example 815] | 52.4 nM | – | – | EC50 (SARS-CoV-2-NLuc; [5]): 180 nM |
| COc1ccc(C#N)c(-c2cc3[nH]c(=O)n(-c4cncc5c4CCCO5)c(=O)c3s2)c1 [Example 598] | 29.6 nM | – | 150 nM | – |
| COc1ccc(Cl)c(-c2cc3[nH]c(=O)n(-c4cncc(C5CC5)c4)c(=O)c3s2)c1 [Example 367] | – | 8.9 nM | – | EC50 (SARS-CoV-2-NLuc; [5]): 21.1 nM |
| COc1cc(-c2cc3[nH]c(=O)n(-c4cncc5ccccc45)c(=O)c3s2)c(Cl)cc1F [Example 340, 6-(2-chloro-4-fluoro-5-methoxy-phenyl)-3-(4-isoquinolyl)-1H-thieno[3,2-d]pyrimidine-2,4-dione] | – | 5.23 nM | 5.39 nM | – |
| O=c1[nH]c2cc(-c3ccccc3Cl)sc2c(=O)n1-c1cncc2ccc(N3CCC(F)(F)C3)cc12 [Example 413] | 5.46 nM | – | 66.8 nM | – |
| COc1ccc(Cl)c(-c2cc3[nH]c(=O)n(-c4cncc5ccc(N6CCn7cc(C(F)(F)F)nc7C6)cc45)c(=O)c3s2)c1 [Example 610] | < 2.54 nM | – | 13.9 nM | – |
| Cc1csc2cncc(-n3c(=O)[nH]c4cc(-c5c(Cl)cccc5-c5cncc(C#N)c5)sc4c3=O)c12 [Example 674] | 3.85 nM | – | 2.82 nM | – |
| COc1cc(-c2ccc3c(=O)n(-c4cncc5ccccc45)c(=O)[nH]c3c2)c(Cl)cc1Cl [Example 316] | – | 1070 nM | 322 nM | – |
| COc1cc(-c2ccc3c(=O)n(-c4cncc5ccccc45)c(=O)[nH]c3c2)c(Cl)cc1C [Example 250] | – | 1210 nM | 460 nM | – |
| CCS(=O)(=O)c1cccc(-c2cccc(Cl)c2-c2ccc3c(=O)n(-c4cncc5ccccc45)c(=O)[nH]c3c2)c1 [Example 284] | – | 25.8 nM | 35.6 nM | – |
| COc1ccc(Cl)c(-c2ccc3c(=O)n(-c4cncc5ccc(N6CC7(CCOC7)C6)cc45)c(=O)[nH]c3c2)c1 [Example 410] | 12.8 nM | – | – | EC50 (SARS-CoV-2-NLuc; [5]): 58.6 nM |
| Cn1ncc2cncc(-n3c(=O)[nH]c4cc(-c5cc(F)ccc5C#N)sc4c3=O)c21 [Example 700] | 54.6 nM | – | – | EC50 (SARS-CoV-2-NLuc; [5]): 466 nM |
| COc1cc(-c2cc3[nH]c(=O)n(-c4cncc5ccccc45)c(=O)c3s2)c(Cl)cc1Cl [Example 342] | – | 4.49 nM | 6.76 nM | – |

| SMILES | IC50 [1, 2] | IC50 [1, 3] | EC50 (SARS-CoV-2-NLuc; [4]) | further results |
| --- | --- | --- | --- | --- |
| Cc1ccccc1-c1cc2[nH]c(=O)n(-c3cncc4ccccc34)c(=O)c2cn1 [Example 165] | – | 1470 nM | 2470 nM | – |
| COc1cc(-c2cc3[nH]c(=O)n(-c4cc(C(F)(F)F)cnn4)c(=O)c3s2)c(Cl)cc1F [Example 748] | 50.2 nM | – | – | EC50 (SARS-CoV-2-NLuc; [5]): 86.5 nM |
| Cn1c(C(F)(F)F)nc2cncc(-n3c(=O)c4sc(-c5ccc(F)cc5Cl)cc4n(CCC#N)c3=O)c21 [Example 857] | 161 nM | – | – | EC50 (SARS-CoV-2-NLuc; [5]): 348 nM |
| CS(=O)(=O)N1CC2(CN(c3ccc4cncc(-n5c(=O)[nH]c6cc(-c7ccccc7Cl)sc6c5=O)c4c3)C2)C1 [Example 424] | 11.3 nM | – | 55.8 nM | – |
| COc1cccc(C(N)=O)c1-c1ccc2c(=O)n(-c3cncc4ccccc34)c(=O)[nH]c2c1 [Example 72] | – | 8200 nM | > 50000 nM | – |
| COc1cc(-c2cc3c(s2)c(=O)n(-c2cncc(OC(F)F)c2)c(=O)n3CCC#N)c(Cl)cc1F [Example 872] | 8.39 nM | – | 37.3 nM | – |
| COc1cc(-c2cc3c(s2)c(=O)n(-c2cncc(C#N)c2C)c(=O)n3CCC#N)c(Cl)cc1F [Example 868] | 9.86 nM | – | 26.1 nM | – |
| CC1(C)Cc2c(-c3cccc(Cl)c3-c3cc4[nH]c(=O)n(-c5cncc6ccccc56)c(=O)c4s3)cnn2C1 [Example 524] | 7.83 nM | – | 5.95 nM | – |
| COc1ccc(Cl)c(-c2cc3[nH]c(=O)n(-c4cncc5cccc(C)c45)c(=O)c3s2)c1 [Example 559] | 6.23 nM | – | 9.19 nM | – |
| COc1cc(-c2cc(OC)c3c(=O)n(-c4cncc5ccccc45)c(=O)[nH]c3c2)c(C#N)cc1F [Example 680] | 21.7 nM | – | – | EC50 (SARS-CoV-2-NLuc; read-out: MPro EC50): 20.8 nM |
| O=c1[nH]c2cc(-c3c(Cl)cccc3CO)ccc2c(=O)n1-c1cncc2ccccc12 [Example 99] | – | 216 nM | 492 nM | – |
| Cn1ncc(-c2cccc(Cl)c2-c2ccc3c(=O)n(-c4cncc5ccccc45)c(=O)[nH]c3c2)c1C(F)F [Example 311] | – | 45.3 nM | 25 nM | – |
| O=c1[nH]c2cc(-c3ccccc3C3CC3)ccc2c(=O)n1-c1cncc2ccccc12 [Example 45] | – | – | – | IC50 ([1]; MPro IC50, recombinant SARS-CoV-2 Mpro, fluorogenic peptide substrate): 1710 nM; EC50 (SARS-CoV-2-NLuc; [5]): 1220 nM |
| N#CCCn1c(=O)n(-c2cncc(C(F)(F)F)c2)c(=O)c2sc(-c3ccccc3C#N)cc21 [Example 890] | 75 nM | – | – | EC50 (SARS-CoV-2-NLuc; [5]): 247 nM |
| CC(=O)NC1CCN(c2ccc3cncc(-n4c(=O)[nH]c5cc(-c6ccccc6Cl)sc5c4=O)c3c2)CC1 [Example 388] | – | 18.7 nM | 212 nM | – |
| N#CCCn1c(=O)n(-c2cncc3cccnc23)c(=O)c2sc(-c3ccccc3Cl)cc21 [Example 905] | 5.93 nM | – | 4.17 nM | – |
| COc1cc(-c2cc3c(s2)c(=O)n(-c2cnccc2C)c(=O)n3CCC#N)c(Cl)cc1F [Example 987, 3-[6-(2-chloro-4-fluoro-5-methoxy-phenyl)-3-(4-methyl-3-pyridyl)-2,4-dioxo-thieno[3,2-d]pyrimidin-1-yl]propanenitrile] | 5.68 nM | – | 5.97 nM | – |
| Cc1cncc(-n2c(=O)c3sc(-c4ccccc4C#N)cc3n(CC3(C#N)CC3)c2=O)c1 [Example 802] | 3.02 nM | – | – | EC50 (SARS-CoV-2-NLuc; [5]): 7.09 nM |
| O=c1[nH]c2cc(-c3cc4c(cc3Cl)OC(F)(F)O4)sc2c(=O)n1-c1cncc2ccccc12 [Example 348] | – | 4760 nM | 8930 nM | – |
| COc1cc(-c2cc3[nH]c(=O)n(-c4cncc5c(F)cccc45)c(=O)c3s2)c(Cl)cc1F [Example 1081] | 8.16 nM | – | 17.9 nM | – |
| Cn1cnc2cncc(-n3c(=O)c4sc(-c5ccccc5C#N)cc4n(CCC#N)c3=O)c21 [Example 844] | 65.6 nM | – | – | EC50 (SARS-CoV-2-NLuc; [5]): > 1000 nM |
| COc1cc(-c2cc3c(s2)c(=O)n(-c2cncc4cnn(C)c24)c(=O)n3C2CC2C#N)c(Cl)cc1F (stereo not drawn) [Example 1005, 2-(6-(2-chloro-4-fluoro-5-methoxyphenyl)-3-(1-methyl-1H-pyrazolo[4,3-c]pyridin-7-yl)-2,4-dioxo-3,4-dihydrothieno[3,2-d]pyrimidin-1(2H)-yl)cyclopropane-1-carbonitrile] | 38.5 nM | – | – | EC50 (SARS-CoV-2-NLuc; read-out: MPro EC50): 52.9 nM |
